Data taken from article PMC7181960 (ChemMedChem, 2019).
Like-named read-outs stand apart in the source and are kept apart here.

Columns and labels:
[1] = test system: Vascular Endothelial Growth Factor (VEGF); experiment: Immunofluorescent analysis of VEGF level in PC3 cells; format: cell-based, human; settings: PC3, IC20 concentration, 24 h incubation
PC3 cells [2] = experiment: Cell death assay; format: cell-based, human; settings: PC3, IC50 concentration, 72 h, flow cytometry
Caki-1 [3] = settings: read-out: IC50 Caki-1; 72 h incubation; values previously reported, ref [10]; cited from earlier work
IMR-90 = settings: read-out: IC50 IMR-90; 72 h incubation; values previously reported, ref [10]; cited from earlier work
PC3 = experiment: PrestoBlue Cell Viability assay, 72 h; format: cell-based, human; settings: read-out: IC50 PC3, 72 h incubation
PC3 cells [4] = settings: previously described, ref [16]; cited from earlier work
Caki-1 [5] = experiment: PrestoBlue Cell Viability assay, 72 h; settings: read-out: IC50 Caki-1, 72 h incubation

For CC(=O)OC[C@H]1O[C@@H]([S-])[C@H](OC(C)=O)[C@@H](OC(C)=O)[C@@H]1OC(C)=O.CCP(CC)CC.[Au+] [Auranofin], the “reduction of VEGF” value [1] is given as 50%, the “apoptosis, % of the cell population” value (PC3 cells [2]) is given as 73% and the IC50 (Caki-1 [3]) is given as 2.8 ± 0.6 µM. The IC50 (IMR-90) was 3.7 ± 0.4 µM and the IC50 (PC3) was 3.6 ± 0.005 µM.

For N.N.[Cl][Pt][Cl] [Cisplatin], the IC50 (Caki-1 [3]) is given as 23.9 ± 2.4 µM, the IC50 (IMR-90) is given as 3.9 ± 0.5 µM and the IC50 (PC3) is given as 6.7 ± 2.8 µM.

In the case of COc1ccc(C[C]2([Ti+2][C]3(Cc4ccc(OC)cc4)C=CC=C3)C=CC=C2)cc1.[Cl-].[Cl-] [Titanocene-Y], the reduction of migration (PC3 cells [4]) is listed as 19%, the IC50 (PC3) is listed as 58.1 ± 11.2 µM and the IC50 (Caki-1 [5]) is listed as 29.4 ± 4.2 µM.
